From patent US8163909B2, “Substituted hydroxyethyl amine compounds as beta-secretase modulators and methods of use” (Amgen Inc., priority 2007, dated 2012)
Read-outs that look alike come from different tables or passages of the source.

Assays:
[1] = biological target: Beta Secretase enzyme (BACE) (Homo sapiens, UniProt P56817); test: In vitro enzymatic BACE FRET (fluorescence resonance energy transfer) assay; assay type: biochemical;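 note: fluorescence read after 1 h with 50 nM quenched peptide substrate spanning the BACE cleavage site, in pH 4.2 acetate buffer containing 10% DMSO and nonionic detergent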
[2] = tested on: Aβ40 in conditioned medium of cells stably expressing Amyloid Precursor Protein (APP); test: In vitro BACE cell-based assay (Aβ40 in conditioned medium, sandwich ELISA);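 note: compounds added as a dilution series, secreted peptide quantified by europium time-resolved fluorescence readout, potency fitted from percent of control versus compound concentration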
[3] = biological target: CYP3A4 (CYP3A) (Homo sapiens, UniProt P08684); test: in vitro; conditions: microsomes, pH 7.4;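 note: inhibition of CYP3A-mediated 1-hydroxymidazolam formation after 10 min incubation with NADPH, quantified by HPLC MS relative to metabolite produced without test compound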
[4] = Microsomal stability assay, rat liver microsomes;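 note: rat liver microsomes (0.25 mg/mL) with about 1 µM compound plus 1 mM NADPH, pH 7.4, 37 °C for 30 min, parent left measured by LC-MS/MS against 0 min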
[5] = Microsomal stability assay, human liver microsomes;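 note: pooled human liver microsomes at 0.25 mg/mL with 1 µM compound and NADPH at 37 °C, pH 7.4, for 30 min, unchanged parent quantified by LC-MS/MS against the 0 min sample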
[6] = biological target: CYP2D6 (Homo sapiens, UniProt P10635); test: CYP2D6 inhibition assay (bufuralol, pooled human liver microsomes)
[7] = BACE enzyme assay, read-out: BACE1 FRET assay
[8] = Homo sapiens, HEK293, HEK cells, read-out: HEK cell assay
[9] = 2D6 IC50 (uM), CYP enzyme inhibition
[10] = BACE enzyme assay, IC50's in uM, read-out: BACE1 FRET assay
[11] = Homo sapiens, HEK293, cell-based assay, HEK cells, IC50's in uM, read-out: HEK cell assay
[12] = 2D6 IC50, CYP enzyme inhibition
[13] = Homo sapiens, HEK293, HEK cell-based assay, IC50's in uM, read-out: HEK cell assay
[14] = read-out: BACE1 FRET assay (IC50)
[15] = Homo sapiens, HEK293, HEK cells, read-out: HEK cell assay (IC50)
[16] = BACE enzyme assay IC50, read-out: BACE1 FRET assay
[17] = Homo sapiens, HEK293, HEK cell-based assay IC50, read-out: HEK cell assay
[18] = 2D6 IC50 (uM), CYP2D6 inhibition

Chain of CYP2D6 (P10635 whole entry): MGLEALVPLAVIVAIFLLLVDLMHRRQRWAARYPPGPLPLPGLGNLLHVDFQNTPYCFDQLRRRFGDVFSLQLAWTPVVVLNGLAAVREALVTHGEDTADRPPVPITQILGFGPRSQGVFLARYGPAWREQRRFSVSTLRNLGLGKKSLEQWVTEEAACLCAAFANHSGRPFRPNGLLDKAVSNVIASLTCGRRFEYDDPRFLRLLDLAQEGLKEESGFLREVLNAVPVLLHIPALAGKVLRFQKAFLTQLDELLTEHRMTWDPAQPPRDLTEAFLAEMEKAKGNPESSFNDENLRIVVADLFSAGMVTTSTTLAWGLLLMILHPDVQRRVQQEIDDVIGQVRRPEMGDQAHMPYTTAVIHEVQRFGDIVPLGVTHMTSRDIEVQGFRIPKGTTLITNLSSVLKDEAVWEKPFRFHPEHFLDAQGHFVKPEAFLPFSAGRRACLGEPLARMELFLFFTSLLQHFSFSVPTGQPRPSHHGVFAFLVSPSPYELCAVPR
Chain of Beta Secretase enzyme (BACE) (P56817 46-501): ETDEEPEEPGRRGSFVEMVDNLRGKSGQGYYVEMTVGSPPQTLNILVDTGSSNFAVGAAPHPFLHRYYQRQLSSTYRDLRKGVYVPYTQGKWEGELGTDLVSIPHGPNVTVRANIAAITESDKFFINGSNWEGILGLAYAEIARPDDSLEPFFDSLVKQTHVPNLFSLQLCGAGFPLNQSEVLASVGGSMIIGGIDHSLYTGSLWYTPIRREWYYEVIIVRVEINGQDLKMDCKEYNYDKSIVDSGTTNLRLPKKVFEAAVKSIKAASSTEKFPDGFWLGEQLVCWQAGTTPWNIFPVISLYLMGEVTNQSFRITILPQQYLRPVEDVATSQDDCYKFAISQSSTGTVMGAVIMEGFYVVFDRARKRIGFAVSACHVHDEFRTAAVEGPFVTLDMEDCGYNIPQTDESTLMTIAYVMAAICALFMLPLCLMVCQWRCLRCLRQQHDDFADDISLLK
Chain of CYP3A4 (CYP3A) (P08684 2-503): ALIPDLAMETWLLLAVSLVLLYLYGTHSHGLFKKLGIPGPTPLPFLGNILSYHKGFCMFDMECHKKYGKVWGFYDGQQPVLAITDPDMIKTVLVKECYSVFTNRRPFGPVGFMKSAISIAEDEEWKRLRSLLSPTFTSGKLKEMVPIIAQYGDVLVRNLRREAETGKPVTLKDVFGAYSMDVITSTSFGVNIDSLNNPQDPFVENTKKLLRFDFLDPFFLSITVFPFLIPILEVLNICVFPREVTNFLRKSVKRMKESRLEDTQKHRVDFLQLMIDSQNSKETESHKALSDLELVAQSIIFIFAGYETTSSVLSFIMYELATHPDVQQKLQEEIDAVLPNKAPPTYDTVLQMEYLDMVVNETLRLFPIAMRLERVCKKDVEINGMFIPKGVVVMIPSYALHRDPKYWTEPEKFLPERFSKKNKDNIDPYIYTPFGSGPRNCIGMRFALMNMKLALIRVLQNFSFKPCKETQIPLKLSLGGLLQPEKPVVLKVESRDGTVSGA

Compound | IC50 [3] | RLM ([4]; rat liver microsomal data) | HLM ([5]; human liver microsomal data) | IC50 [6, 9] | IC50 [1, 10] | IC50 [2, 13] | RLM ([4]; rat liver microsomes) | HLM ([5]; human liver microsomes) | also measured
CC(=O)N[C@@H](Cc1ccc(F)cc1)[C@H](O)CN[C@H]1CC2(CCC2)Oc2ncc(C(F)(F)C(C)(C)C)cc21 [compound 570] | 0.8 µM | 162 µL/min/mg | 101 µL/min/mg | 7.1 µM |  |  |  |  | IC50 [1, 7]: 0.136 µM; IC50 [2, 8]: 0.405 µM
COCC(=O)N[C@@H](Cc1ccc2c(c1)OCO2)[C@H](O)CN[C@H]1CC2(CCC2)Oc2ccc(C[C@@H](C)F)cc21 [compound 498] | 0.5 µM | 206 µL/min/mg | 119 µL/min/mg | 0.7 µM |  |  |  |  | IC50 [1, 7]: 0.268 µM; IC50 ([2]; HEK cells, read-out: HEK cell assay): 0.377 µM
CO[C@@H](C)C(=O)N[C@@H](Cc1ccc2c(c1)OCO2)[C@H](O)CN[C@H]1CC2(CCC2)Oc2ccc(C[C@@H](C)F)cc21 [compound 499] | 0.3 µM | 213 µL/min/mg | 156 µL/min/mg | 0.7 µM |  |  |  |  | IC50 [1, 7]: 1.36 µM; IC50 [2, 8]: 0.473 µM
CO[C@H](C)C(=O)N[C@@H](Cc1ccc(F)cc1)[C@H](O)CN[C@H]1CC2(CCC2)Oc2c1cc(CC(C)(C)C)nc2-c1ccncc1 [compound 527] | 0.1 µM | 108 µL/min/mg | 33 µL/min/mg | 0.6 µM |  |  |  |  | IC50 [1, 7]: 0.222 µM; IC50 [2, 8]: 1.95 µM
CC(C)(C)Cc1cnc2c(c1)[C@@H](NC[C@@H](O)[C@H](Cc1cc(F)cc(-c3nccs3)c1)NC(=O)C1(C)CC1)CC1(CCC1)O2 [compound 876] | 0.2 µM | 91 µL/min/mg | 64 µL/min/mg |  | 0.036 µM |  |  |  | IC50 [2, 11]: 0.132 µM; IC50 [6, 12]: 0.3 µM
CO[C@H](C)C(=O)N[C@@H](Cc1cccc(C#N)c1)[C@H](O)CN[C@H]1CC2(CC(F)(F)C2)Oc2ncc(CC(C)(C)C)cc21 [compound 471] | 1.1 µM | 536 µL/min/mg | 569 µL/min/mg |  |  |  |  |  | IC50 ([1]; Table 2, read-out: BACE1 FRET assay): 0.004 µM; IC50 ([2]; Homo sapiens, HEK293, Table 2, HEK cells, read-out: HEK cell assay): 0.012 µM; IC50 [6, 12]: 10.3 µM
CC(C)(C)Cc1cnc2c(c1)[C@@H](NC[C@@H](O)[C@H](Cc1ccc(F)cc1)NC(=O)[C@H]1CN(Cc3cscn3)CCO1)CC1(CCC1)O2 [compound 774] | 0.2 µM | 57 µL/min/mg | 111 µL/min/mg | 5.3 µM | 0.017 µM | 0.006 µM |  |  | 
CC(=O)N[C@@H](Cc1cc(F)cc(F)c1)[C@H](O)CN[C@H]1CC2(CCC2)Oc2ncc(C(F)(F)C(C)(C)C)cc21 [compound 627] | 2.1 µM |  |  |  |  |  | 166 µL/min/mg | 829 µL/min/mg | IC50 [1, 14]: 0.007 µM; IC50 [2, 15]: 0.047 µM; IC50 ([6]; 2D6 IC50, CYP2D6 inhibition): 26.1 µM
CO[C@H](C)C(=O)N[C@@H](Cc1cc(Cl)ccc1F)[C@H](O)CN[C@H]1CC2(CCC2)Oc2ncc(CC(C)(C)C)cc21 [compound 899] | 0.1 µM | 543 µL/min/mg | 443 µL/min/mg |  | 0.005 µM |  |  |  | IC50 [2, 11]: 0.009 µM; IC50 [6, 12]: 2.6 µM
CC(C)(C)Cc1cnc2c(c1)[C@@H](NC[C@@H](O)[C@H](Cc1cccc(-c3nccs3)c1F)NC(=O)[C@@H]1CCCO1)CC1(CCC1)O2 [compound 910] | 0.1 µM | 153 µL/min/mg | 147 µL/min/mg |  | 0.079 µM |  |  |  | IC50 [2, 11]: 0.079 µM; IC50 [6, 12]: 2.4 µM
COCC(=O)N[C@@H](Cc1cc(F)cc(F)c1)[C@H](O)CN[C@H]1CC2(CCC2)Oc2c1cc(CC(C)C)nc2Cl [compound 667] | 0.6 µM |  |  |  |  |  | 682 µL/min/mg | 399 µL/min/mg | IC50 [1, 14]: 0.005 µM; IC50 [2, 15]: 0.054 µM; IC50 ([6]; 2D6 IC50, CYP2D6 inhibition): 6.3 µM
C#Cc1cccc(C[C@H](NC(=O)C(OC)OC)[C@H](O)CN[C@H]2CC3(CCC3)Oc3ncc(CC(C)(F)F)cc32)c1 [compound 830] | 0.1 µM | 35 µL/min/mg | 28 µL/min/mg | 1.3 µM | 0.007 µM | 0.023 µM |  |  | 
CO[C@H](C)C(=O)N[C@@H](Cc1ccc2c(c1)OCO2)[C@H](O)CN[C@H]1CC2(CCC2)Oc2ncc(CC(C)(C)F)cc21 [compound 741] | ≤ 0.03 µM |  |  |  |  |  | 76 µL/min/mg | 25 µL/min/mg | IC50 [1, 16]: 0.352 µM; IC50 [2, 17]: 0.329 µM; IC50 [6, 18]: 5 µM
CO[C@H](C)C(=O)N[C@@H](Cc1cc(F)cc(-c2nccs2)c1)[C@H](O)CN[C@H]1CC2(CCC2)Oc2ncc(CC(C)C)cc21 [Example 761] | 0.1 µM | 74 µL/min/mg | 85 µL/min/mg | 0.7 µM | 1.62 µM | 0.375 µM |  |  | 
COCC(=O)N[C@@H](Cc1cccc(F)c1)[C@H](O)CN[C@H]1CC2(CCC2)Oc2nc3c(cc21)[C@H](C(C)C)CO3 [compound 763] | 2 µM | 399 µL/min/mg | 399 µL/min/mg | 2 µM | 2.5 µM | 1.3 µM |  |  | 
C#Cc1cccc(C[C@H](NC(=O)COC)[C@H](O)CN[C@H]2C[C@@]3(CCOC3)Oc3ncc(CC(C)(C)C)cc32)c1 [compound 825, N-((1S,2R)-3-(((3S,4′S)-6′-(2,2-dimethylpropyl)-3′,4,4′,5-tetrahydrospiro[furan-3,2′-pyrano[2,3-b]pyridin]-4′-yl)amino)-1-(3-ethynylbenzyl)-2-hydroxypropyl)-2-methoxyacetamide] | 0.1 µM | 85 µL/min/mg | 17 µL/min/mg | 7.3 µM | 0.005 µM | 0.009 µM |  |  | 
CC(=O)N[C@@H](Cc1ccc(-c2cncs2)cc1)[C@H](O)CN[C@H]1CC2(CCC2)Oc2ncc(CC(C)(C)C)cc21 [compound 694] | 0.2 µM |  |  |  |  |  | 66 µL/min/mg | 82 µL/min/mg | IC50 [1, 16]: 0.074 µM; IC50 [2, 17]: 0.071 µM; IC50 [6, 18]: 0.3 µM
CO[C@H](C)C(=O)N[C@@H](Cc1cc(F)cc(F)c1)[C@H](O)CN[C@H]1CC2(CCC2)Oc2ncc(CC(C)(C)C#N)cc21 [compound 511] | 2.4 µM | 203 µL/min/mg | 382 µL/min/mg | 14.5 µM |  |  |  |  | IC50 [1, 7]: 0.007 µM; IC50 [2, 8]: 0.011 µM
COCC(=O)N[C@@H](Cc1cc(F)cc(F)c1)[C@H](O)CN[C@H]1CC2(CCC2)Oc2c1cc(CC(C)(C)C)nc2-c1cnc[nH]1 [compound 508] | 0.1 µM | 43 µL/min/mg | 17 µL/min/mg | 1.2 µM |  |  |  |  | IC50 [1, 7]: 0.024 µM; IC50 [2, 8]: 0.005 µM
COCC(=O)N[C@@H](Cc1ccc(F)cc1)[C@H](O)CN[C@H]1CC2(CCC2)Oc2c1cc(CC(C)(C)C)nc2Nc1ccccc1 [compound 612] | ≥ 27 µM |  |  |  |  |  | 245 µL/min/mg | 176 µL/min/mg | IC50 [1, 14]: 0.21 µM; IC50 [2, 15]: > 10 µM; IC50 ([6]; 2D6 IC50, CYP2D6 inhibition): ≥ 27 µM
COCC(=O)N[C@@H](Cc1ccc2c(c1)OCO2)[C@H](O)CN[C@H]1CC2(CCC2)Oc2ncc([C@H]3CC3(C)C)cc21 [compound 576] | 0.1 µM |  |  |  |  |  | 209 µL/min/mg | 31 µL/min/mg | IC50 [1, 14]: 0.328 µM; IC50 [2, 15]: 0.249 µM; IC50 ([6]; 2D6 IC50, CYP2D6 inhibition): 2.7 µM
CC(C)(C)Cc1cnc2c(c1)[C@@H](NC[C@@H](O)[C@H](Cc1ccc3c(c1)OCO3)NC(=O)C1CCS(=O)(=O)C1)CC1(CCC1)O2 (stereo partly drawn) [compound 779] | 0.1 µM | 66 µL/min/mg | 36 µL/min/mg | 3.9 µM | 0.057 µM | 0.075 µM |  |  | 
COCC(=O)N[C@@H](Cc1cccc(F)c1)[C@H](O)CN[C@H]1CC2(CCC2)Oc2c(-c3ccnc(OC)c3)cc(CC(C)(C)C)cc21 [compound 654] | 1 µM |  |  |  |  |  | 477 µL/min/mg | 399 µL/min/mg | IC50 [1, 14]: 0.006 µM; IC50 [2, 15]: 0.034 µM; IC50 ([6]; 2D6 IC50, CYP2D6 inhibition): 9.9 µM
CC(=S)N[C@@H](Cc1cccc(-c2nccs2)c1)[C@H](O)CN[C@H]1CC2(CCC2)Oc2ncc(CC(C)(C)C)cc21 [compound 793] | 0.1 µM | 60 µL/min/mg | 99 µL/min/mg | 0.4 µM | 0.03 µM | 0.067 µM |  |  | 
COCC(=O)N[C@@H](Cc1cccc(F)c1)[C@H](O)CN[C@H]1CC2(CCC2)Oc2c(-c3ccnc(N(C)C)c3)cc(CC(C)(C)C)cc21 [Example 439, N-((1S,2R)-3-(((4S)-8-(2-(dimethylamino)-4-pyridinyl)-6-(2,2-dimethylpropyl)-3,4-dihydrospiro[chromene-2,1′-cyclobutan]-4-yl)amino)-1-(3-fluorobenzyl)-2-hydroxypropyl)-2-methoxyacetamide] | 1.3 µM |  |  |  |  |  | 515 µL/min/mg | 601 µL/min/mg | IC50 [1, 16]: 0.02 µM; IC50 [2, 17]: 0.005 µM; IC50 [6, 18]: 4.1 µM
CC#Cc1cnc2c(c1)[C@@H](NC[C@@H](O)[C@H](Cc1cccc(-c3nccs3)c1)NC(=O)COC)CC1(CCC1)O2 [compound 811] | 0.3 µM | 54 µL/min/mg | 36 µL/min/mg | 1 µM | 0.309 µM | 0.736 µM |  |  | 
